This note sets out measurements from US12077537B2 (Gilead Sciences, Inc., priority 2020, dated 2024).

SMILES strings stand for the structures.

In the assay the test system is HIV-IIIb. Put plainly: Antiviral assay in MT4 cells. The class given is cell-based. The note with it: Human immunodeficiency virus 1, MT4, 120 h; MT-4 cells mixed with HIV-IIIb at m.o.i. 0.003; 5 days at 37° C.; CellTiter-Glo luminescence; 50% decrease in signal, a measure of HIV-1 replication. A digest of the protocol:
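MT-4 cells were infected with HIV-IIIb at m.o.i. 0.003 for 1 hour, then added to 3-fold serially diluted compound (10 concentrations, quadruplicate) in medium with 10% FBS. After 5 days at 37° C, cell viability was read by CellTiter-Glo chemiluminescence.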
Background: Cellular ATP, detected with luciferase, serves as a proxy for viable cell number.
For orientation: EC50 means the concentration that produces a half-maximal response. High values mean a less potent agent, low ones a more potent agent. `Cc1nc2nc([C@H](Cc3cc(F)cc(F)c3)NC(=O)Cn3nc(C(F)(F)F)c4c3C(F)(F)[C@@H]3C[C@H]43)c(-c3ccc(Cl)c4c(NS(C)(=O)=O)nn(C)c34)cc2[nH]1` [Example 100, N—((S)-1-(6-(4-chloro-1-methyl-3-(methylsulfonamido)-1H-indazol-7-yl)-2-methyl-1H-imidazo[4,5-b]pyridin-5-yl)-2-(3,5-difluorophenyl)ethyl)-2-((3bS,4aR)-5,5-difluoro-3-(trifluoromethyl)-3b,4,4a,5-tetrahydro-1H-cyclopropa[3,4]cyclopenta[1,2-c]pyrazol-1-yl)acetamide] returned a 50% effective concentration (EC50) of 2.4 nM.
Consider `CN1CCN(c2nc3nc([C@H](Cc4cc(F)cc(F)c4)NC(=O)Cn4nc(C(F)F)c5c4C(F)(F)CCC5(F)F)c(-c4ccc(F)c(C(N)=O)c4)cc3s2)CC1` [Compound 7, (S)-5-(5-(1-(2-(3-(difluoromethyl)-4,4,7,7-tetrafluoro-4,5,6,7-tetrahydro-1H-indazol-1-yl)acetamido)-2-(3,5-difluorophenyl)ethyl)-2-(4-methylpiperazin-1-yl)thiazolo[4,5-b]pyridin-6-yl)-2-fluorobenzamide], for which the EC50 turned out to be 127 nM.
In the case of `Cn1nc(NS(C)(=O)=O)c2cccc(-c3cc4sc(N5CCNCC5)nc4nc3[C@H](Cc3cc(F)cc(F)c3)NC(=O)Cn3nc(C(F)(F)F)c4c3C(F)(F)[C@@H]3C[C@H]43)c21` [Example 86, 2-((3bS,4aR)-5,5-difluoro-3-(trifluoromethyl)-3b,4,4a,5-tetrahydro-1H-cyclopropa[3,4]cyclopenta[1,2-c]pyrazol-1-yl)-N—((S)-2-(3,5-difluorophenyl)-1-(6-(1-methyl-3-(methylsulfonamido)-1H-indazol-7-yl)-2-(piperazin-1-yl)thiazolo[4,5-b]pyridin-5-yl)ethyl)acetamide] it was 15.3 nM; in that of `Cn1nc(N)c2c(Cl)ccc(-c3cc4sc(NCC(C)(C)O)nc4nc3[C@H](Cc3cc(F)cc(F)c3)NC(=O)Cn3nc(C(F)(F)F)c4c3C(F)(F)[C@@H]3C[C@H]43)c21` [Example 115, N—((S)-1-(6-(3-amino-4-chloro-1-methyl-1H-indazol-7-yl)-2-((2-hydroxy-2-methylpropyl)amino)thiazolo[4,5-b]pyridin-5-yl)-2-(3,5-difluorophenyl)ethyl)-2-((3bS,4aR)-5,5-difluoro-3-(trifluoromethyl)-3b,4,4a,5-tetrahydro-1H-cyclopropa[3,4]cyclopenta[1,2-c]pyrazol-1-yl)acetamide], 7 nM; in that of `NC(=O)c1cc(-c2cc3sc(N4CCN(c5ccc(-c6ncc[nH]6)cc5)CC4)nc3nc2[C@H](Cc2cc(F)cc(F)c2)NC(=O)Cn2nc(C(F)F)c3c2C2CC2CC3)ccc1F` (stereo partly drawn) [Compound 41, 5-(2-(4-(4-(1H-imidazol-2-yl)phenyl)piperazin-1-yl)-5-((1S)-1-(2-(3-(difluoromethyl)-5,5a,6,6a-tetrahydrocyclopropa[g]indazol-1(4H)-yl)acetamido)-2-(3,5-difluorophenyl)ethyl)thiazolo[4,5-b]pyridin-6-yl)-2-fluorobenzamide], 98.1 nM.
In the case of `CC(C)(O)C#CC1(Cl)Nc2nc(C(Cc3cc(F)cc(F)c3)NC(=O)Cn3nc(C(F)F)c4c3C(F)(F)CCC4(F)F)c(-c3ccc(F)c(C(N)=O)c3)cc2S1` (stereo not shown) [Compound 22, 5-(2-chloro-5-(1-(2-(3-(difluoromethyl)-4,4,7,7-tetrafluoro-4,5,6,7-tetrahydro-1H-indazol-1-yl)acetamido)-2-(3,5-difluorophenyl)ethyl)-2-(3-hydroxy-3-methylbut-1-yn-1-yl)-2,3-dihydrothiazolo[4,5-b]pyridin-6-yl)-2-fluorobenzamide] it was 184 nM.
The same measure for `Cc1c(-c2cc3sc(N4CC(C)(O)C4)nc3nc2[C@H](Cc2cc(F)cc(F)c2)NC(=O)Cn2nc(C(F)(F)F)c3c2C(F)(F)[C@@H]2C[C@H]32)ccc2n[nH]c(=O)n12` [Compound 49, 2-((3bS,4aR)-5,5-difluoro-3-(trifluoromethyl)-3b,4,4a,5-tetrahydro-1H-cyclopropa[3,4]cyclopenta[1,2-c]pyrazol-1-yl)-N—((S)-2-(3,5-difluorophenyl)-1-(2-(3-hydroxy-3-methylazetidin-1-yl)-6-(5-methyl-3-oxo-2,3-dihydro-[1,2,4]triazolo[4,3-a]pyridin-6-yl)thiazolo[4,5-b]pyridin-5-yl)ethyl)acetamide]: 31.7 nM; for `CC1(O)CN(c2nc3nc([C@H](Cc4cc(F)cc(F)c4)NC(=O)Cn4nc(C(F)(F)F)c5c4C(F)(F)[C@@H]4C[C@H]54)c(-c4ccc5c(c4)C(=O)NC54CC4)cc3s2)C1` [Compound 43, 2-((3bS,4aR)-5,5-difluoro-3-(trifluoromethyl)-3b,4,4a,5-tetrahydro-1H-cyclopropa[3,4]cyclopenta[1,2-c]pyrazol-1-yl)-N—((S)-2-(3,5-difluorophenyl)-1-(2-(3-hydroxy-3-methylazetidin-1-yl)-6-(3′-oxospiro[cyclopropane-1,1′-isoindolin]-5′-yl)thiazolo[4,5-b]pyridin-5-yl)ethyl)acetamide]: 22.5 nM.
For `NC(=O)c1cc(-c2cc3sc(O)nc3nc2[C@H](Cc2cc(F)cc(F)c2)NC(=O)Cn2nc(C(F)F)c3c2C(F)(F)CCC3(F)F)ccc1F` [Compound 15-1, (S)-5-(5-(1-(2-(3-(difluoromethyl)-4,4,7,7-tetrafluoro-4,5,6,7-tetrahydro-1H-indazol-1-yl)acetamido)-2-(3,5-difluorophenyl)ethyl)-2-hydroxythiazolo[4,5-b]pyridin-6-yl)-2-fluorobenzamide], the EC50 turned out to be 318 nM.
On to `Cn1nc(NS(C)(=O)=O)c2cccc(-c3cc4sc(NCC5(O)CC5)nc4nc3[C@H](Cc3cc(F)cc(F)c3)NC(=O)Cn3nc(C(F)(F)F)c4c3C(F)(F)[C@@H]3C[C@H]43)c21` [Example 70, 2-((3bS,4aR)-5,5-difluoro-3-(trifluoromethyl)-3b,4,4a,5-tetrahydro-1H-cyclopropa[3,4]cyclopenta[1,2-c]pyrazol-1-yl)-N—((S)-2-(3,5-difluorophenyl)-1-(2-(((1-hydroxycyclopropyl)methyl)amino)-6-(1-methyl-3-(methylsulfonamido)-1H-indazol-7-yl)thiazolo[4,5-b]pyridin-5-yl)ethyl)acetamide], for which the concentration for a half-maximal effect (EC50) worked out at 13.8 nM.
The compound `NC(=O)c1cc(-c2cc3sc(C#Cc4ccc(-c5c[nH]c([C@@H]6CCCN6)n5)cc4)nc3nc2[C@H](Cc2cc(F)cc(F)c2)NC(=O)Cn2nc(C(F)F)c3c2C(F)(F)CCC3(F)F)ccc1F` [Compound 138, 5-(5-((S)-1-(2-(3-(difluoromethyl)-4,4,7,7-tetrafluoro-4,5,6,7-tetrahydro-1H-indazol-1-yl)acetamido)-2-(3,5-difluorophenyl)ethyl)-2-((4-(2-((S)-pyrrolidin-2-yl)-1H-imidazol-4-yl)phenyl)ethynyl)thiazolo[4,5-b]pyridin-6-yl)-2-fluorobenzamide] registered an EC50 of 112 nM.
`Cc1nc2nc([C@H](Cc3cc(F)cc(F)c3)NC(=O)Cn3nc(C(F)F)c4c3C(F)(F)[C@@H]3C[C@H]43)c(-c3ccc(Cl)c4c(NS(C)(=O)=O)nn(C)c34)cc2[nH]1` [Example 99, N—((S)-1-(6-(4-chloro-1-methyl-3-(methylsulfonamido)-1H-indazol-7-yl)-2-methyl-1H-imidazo[4,5-b]pyridin-5-yl)-2-(3,5-difluorophenyl)ethyl)-2-((3bS,4aR)-3-(difluoromethyl)-5,5-difluoro-3b,4,4a,5-tetrahydro-1H-cyclopropa[3,4]cyclopenta[1,2-c]pyrazol-1-yl)acetamide] yielded an EC50 of 1.6 nM.
For `CN(C)CCNc1nc2nc(C(Cc3cc(F)cc(F)c3)NC(=O)Cn3nc(C(F)F)c4c3C(F)(F)CCC4(F)F)c(-c3ccc(F)c(C(N)=O)c3)cc2s1` (stereo not shown) [Compound 20, 5-(5-(1-(2-(3-(difluoromethyl)-4,4,7,7-tetrafluoro-4,5,6,7-tetrahydro-TH-indazol-1-yl)acetamido)-2-(3,5-difluorophenyl)ethyl)-2-((2-(dimethylamino)ethyl)amino)thiazolo[4,5-b]pyridin-6-yl)-2-fluorobenzamide], the response was half-maximal at 303 nM (EC50).
`Cn1cnc(-c2nc3nc(C(Cc4cc(F)cc(F)c4)NC(=O)Cn4nc(C(F)(F)F)c5c4C(F)(F)[C@@H]4C[C@H]54)c(-c4cccc5c(NS(C)(=O)=O)nn(C)c45)cc3s2)c1` (stereo partly drawn) [Compound 134, 2-((3bS,4aR)-5,5-difluoro-3-(trifluoromethyl)-3b,4,4a,5-tetrahydro-1H-cyclopropa[3,4]cyclopenta[1,2-c]pyrazol-1-yl)-N-(2-(3,5-difluorophenyl)-1-(2-(1-methyl-1H-imidazol-4-yl)-6-(1-methyl-3-(methylsulfonamido)-1H-indazol-7-yl)thiazolo[4,5-b]pyridin-5-yl)ethyl)acetamide] registered an EC50 of 10.2 nM.
In the case of `Cn1nc(NS(C)(=O)=O)c2cccc(-c3cc4sc(N5CC(C(N)=O)C5)nc4nc3[C@H](Cc3cc(F)cc(F)c3)NC(=O)Cn3nc(C(F)(F)F)c4c3C(F)(F)[C@@H]3C[C@H]43)c21` [Example 73, 1-(5-((S)-1-(2-((3bS,4aR)-5,5-difluoro-3-(trifluoromethyl)-3b,4,4a,5-tetrahydro-1H-cyclopropa[3,4]cyclopenta[1,2-c]pyrazol-1-yl)acetamido)-2-(3,5-difluorophenyl)ethyl)-6-(1-methyl-3-(methylsulfonamido)-1H-indazol-7-yl)thiazolo[4,5-b]pyridin-2-yl)azetidine-3-carboxamide] it was 67.7 nM.
The same measure for `Cn1nc(N)c2cccc(-c3cc4sc(NCC(C)(C)O)nc4nc3[C@H](Cc3cc(F)cc(F)c3)NC(=O)Cn3nc(C(F)(F)F)c4c3C(F)(F)[C@@H]3C[C@H]43)c21` [Compound 51, N—((S)-1-(6-(3-amino-1-methyl-1H-indazol-7-yl)-2-((2-hydroxy-2-methylpropyl)amino)thiazolo[4,5-b]pyridin-5-yl)-2-(3,5-difluorophenyl)ethyl)-2-((3bS,4aR)-5,5-difluoro-3-(trifluoromethyl)-3b,4,4a,5-tetrahydro-1H-cyclopropa[3,4]cyclopenta[1,2-c]pyrazol-1-yl)acetamide]: 9.7 nM.
